Reference: the supplement of paper PMC10307832

Tests used:
Assay in all cases: relative viability (nuclei count vs DMSO), 5 days (fraction); higher = more cells survive
[1] = compound: CC(C)C[C@@H](C(=O)N[C@H](C(=O)OC1CCCC1)c1ccccc1)[C@H](O)C(=O)NO [Tosedostat] + CC(=O)c1c(C)c2cnc(Nc3ccc(N4CCNCC4)cn3)nc2n(C2CCCC2)c1=O [Palbociclib] (partner 0.5 µM)
Outline: (§1)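 Nuclei were stained with Hoechst during a one-step fixation (final 0.05% Triton X-100, 1% formaldehyde, 1 ug/ml Hoechst) carried out 5 days after dosing, then counted on 4× images. The cells, lung cancer lines in 1536-well plates, had been dosed by pin tool the day after seeding with one drug alone or a fixed anchor-drug dose plus five library-drug doses (not always all listed) in √10 steps. Relative viability is the nuclei count in treated wells divided by that in vehicle wells, and each value is the median of duplicate plates.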

[2] = compound: CC1=NN=C(O1)C2=NN=C(C=C2)N3CCC(CC3)OC4=C(C=CC(=C4)F)Cl + Nc1nc2[nH]cc(CCc3ccc(C(=O)N[C@@H](CCC(=O)O)C(=O)O)cc3)c2c(=O)[nH]1 [Pemetrexed] (partner 0.2 µM)
Outline: as §1

[3] = compound: CC1=NN=C(O1)C2=NN=C(C=C2)N3CCC(CC3)OC4=C(C=CC(=C4)F)Cl + CS(=O)(=O)N1CCN(Cc2cc3nc(-c4cccc5[nH]ncc45)nc(N4CCOCC4)c3s2)CC1 [Pictilisib] (partner 1 µM)
Outline: as §1

[4] = compound: CC(C)C[C@@H](C(=O)N[C@H](C(=O)OC1CCCC1)c1ccccc1)[C@H](O)C(=O)NO [Tosedostat] + Cc1nc(NC(=O)N2CCC[C@H]2C(N)=O)sc1-c1ccnc(C(C)(C)C(F)(F)F)c1 [Alpelisib] (partner 2 µM)
Outline: as §1

| Cell Line | relative viability ([1]; first compound 0.02 µM) | relative viability ([1]; first compound 0.06325 µM) | relative viability ([1]; first compound 0.2 µM) | relative viability ([1]; first compound 0.6325 µM) | relative viability ([1]; first compound 2 µM) | relative viability ([2]; first compound 0.253 µM) | relative viability ([2]; first compound 0.8 µM) | relative viability ([2]; first compound 2.53 µM) | relative viability ([2]; first compound 8 µM) | relative viability ([3]; first compound 0.253 µM) | relative viability ([3]; first compound 0.8 µM) | relative viability ([3]; first compound 2.53 µM) | relative viability ([3]; first compound 8 µM) | relative viability ([4]; first compound 0.02 µM) | relative viability ([4]; first compound 0.06325 µM) | relative viability ([4]; first compound 0.2 µM) | relative viability ([4]; first compound 0.6325 µM) | relative viability ([4]; first compound 2 µM) |
| --- | --- | --- | --- | --- | --- | --- | --- | --- | --- | --- | --- | --- | --- | --- | --- | --- | --- | --- |
| NCI-H2405 | 0.576 | 0.559 | 0.548 | 0.484 | 0.466 | 0.595 | 0.562 | 0.563 | 0.594 | 0.401 | 0.523 | 0.4 | 0.385 | 0.78 | 0.804 | 0.829 | 0.787 | 0.76 |
| NCI-H520 | 0.245 | 0.236 | 0.239 | 0.303 | 0.315 | 0.644 | 0.543 | 0.642 | 0.471 | 0.3 | 0.325 | 0.29 | 0.316 | 0.805 | 0.807 | 0.929 | 1.12 | 0.946 |
| NCI-H2085 |  | 0.498 | 0.474 | 0.512 | 0.561 | 0.801 | 0.676 | 0.841 | 0.696 | 0.387 | 0.471 | 0.452 | 0.39 | 0.904 | 1.02 | 1.06 | 0.936 | 0.887 |
| NCI-H1944 | 0.315 | 0.356 | 0.386 | 0.32 | 0.377 | 0.372 | 0.328 | 0.493 | 0.369 | 0.31 | 0.381 | 0.381 | 0.331 | 0.929 | 0.811 | 0.817 | 0.742 | 0.818 |
| LXF-289 | 0.653 | 0.608 | 0.612 | 0.665 | 0.625 | 0.768 | 0.594 | 0.767 | 0.726 | 0.69 | 0.718 | 0.687 | 0.6 | 1.03 | 1.05 | 1.03 | 1.07 | 1.1 |
| NCI-H596 |  |  |  |  |  | 0.52 | 0.494 | 0.476 | 0.394 |  | 0.352 | 0.366 | 0.363 | 0.48 | 0.51 | 0.483 | 0.619 | 0.552 |
| NCI-H441 | 0.188 | 0.258 | 0.242 | 0.23 | 0.186 | 0.295 | 0.265 | 0.223 | 0.258 | 0.504 | 0.423 | 0.389 | 0.389 | 0.749 | 0.582 | 0.597 | 0.501 | 0.534 |
| NCI-H2126 | 0.328 | 0.352 | 0.352 | 0.352 | 0.352 | 0.69 | 0.607 | 0.635 | 0.606 | 0.433 | 0.478 | 0.441 | 0.412 | 0.664 | 0.744 | 0.757 | 0.774 | 0.661 |
| HCC-15 | 0.759 | 0.688 | 0.572 | 0.708 | 0.653 | 0.215 | 0.239 | 0.226 | 0.214 | 0.583 | 0.566 | 0.6 | 0.546 | 0.848 | 0.934 | 0.863 | 0.808 | 0.651 |
| HCC-44 | 1.05 | 0.982 | 1.01 | 0.983 | 0.928 | 0.264 | 0.378 | 0.282 | 0.31 | 0.42 | 0.444 | 0.578 | 0.472 | 0.684 | 0.874 | 0.767 | 0.886 | 0.544 |
| COR-L23 | 0.389 | 0.357 | 0.338 | 0.277 | 0.288 | 0.179 | 0.193 | 0.176 | 0.181 | 0.66 | 0.621 | 0.686 | 0.469 | 0.871 | 0.727 | 0.746 | 0.694 | 0.655 |
| HCC-78 | 0.502 | 0.46 | 0.41 | 0.486 | 0.495 | 0.888 | 0.879 | 0.872 | 0.853 | 0.204 | 0.234 | 0.11 | 0.184 | 0.294 | 0.338 | 0.257 | 0.336 | 0.454 |
| NCI-H1299 |  |  |  |  |  |  |  |  |  | 0.698 | 0.611 | 0.71 | 0.713 | 1.13 | 1.02 | 1.03 | 1.03 | 0.906 |
| ABC-1 | 0.826 | 0.706 | 0.704 | 0.576 | 0.531 |  |  |  |  | 0.389 | 0.532 | 0.547 | 0.464 | 1.05 | 0.864 | 1.08 | 0.843 | 0.771 |
| NCI-H1703 |  |  |  |  |  |  |  |  |  | 0.226 | 0.265 | 0.258 | 0.279 | 0.265 | 0.274 | 0.302 | 0.329 | 0.31 |
| NCI-H1563 |  |  |  |  |  | 0.735 | 0.878 | 0.825 | 0.648 | 0.625 | 0.694 | 0.659 | 0.633 | 0.879 | 1 | 0.956 | 1.16 | 1.1 |
| ChaGo-K-1 | 1.01 | 0.907 | 0.87 | 0.858 | 0.671 | 0.245 | 0.265 | 0.248 | 0.266 | 0.633 | 0.681 | 0.508 | 0.548 |  |  |  |  |  |
| NCI-H1648 | 0.251 | 0.264 | 0.263 | 0.313 | 0.248 | 0.593 | 0.625 | 0.647 | 0.685 |  |  |  |  |  |  |  |  |  |
| A549 |  |  |  |  |  |  |  |  |  | 0.406 | 0.255 | 0.319 | 0.234 | 0.753 | 0.714 | 0.683 | 0.709 | 0.526 |
| NCI-H522 | 0.964 | 0.845 | 1.02 | 1.17 | 0.945 | 1.02 | 0.947 | 1.14 | 0.959 |  |  |  |  |  |  |  |  |  |
| SW 900 | 0.446 | 0.462 | 0.479 | 0.479 | 0.466 |  | 0.444 | 0.486 | 0.449 |  |  |  |  |  |  |  |  |  |
| IA-LM |  |  |  |  |  |  |  |  |  | 0.173 | 0.195 | 0.203 | 0.187 | 0.735 | 0.845 | 0.714 | 0.656 | 0.617 |
| EBC-1 |  |  |  |  |  |  |  |  |  | 0.33 | 0.485 | 0.473 | 0.408 | 0.771 | 0.87 | 0.711 | 0.552 | 0.541 |
